According to patent publication US20130012466A1 (priority 2006, published 2013):
“Also recorded” adds a separate entry of the source. Like-named read-outs stand apart in the source and are kept apart here.

What was measured:
[1] = system: nine human cancer cell lines and one normal mouse control cell line; assay: Cytotoxicity screen across the whole cell line panel; format: cell-based; conditions: versus parent colchicine
[2] = system: Hep3B; assay: Cytotoxicity assay (cell titer-glo and calcein AM), Hep3B
[3] = system: SF-268; assay: Cytotoxicity assay (cell titer-glo and calcein AM), SF-268
[4] = system: ADR-RES; assay: Cytotoxicity assay (cell titer-glo and calcein AM), ADR-RES
[5] = system: tubulin; assay: In vitro tubulin polymerization assay (fluorescence-based); format: biochemical; set-up: key to tubulin polymeriz.: ‘D’ designates destabilizer; ‘S’ designates stabilizer; conditions: for effect on tubulin polymerization / microtubules: tested in duplicate on at least two days
Protocol: In vitro tubulin polymerization assays were performed using a fluorescence-based assay (Cytoskeleton, Inc., Denver, Colo.). […] Aliquots (5 μL) of each compound or control were added to a 96-well black half area plate (Corning Costar, Inc.) pre-warmed to 37° C. Cold tubulin reaction mix (50 μL 1× Buffer—80 mM piperazine-N,N′-bis[2-ethanesulfonic acid]sequisodium salt; 2.0 mM magnesium chloride; 0.5 mM ethylene glycol-bis[β-amino-ethyl ether) N,N,N′,N′-tetra-acetic acid, pH 6.9, 10 μM fluorescent reporter; 20% tubulin glycerol buffer—80 mM piperazine-N,N′-bis[2-ethanesulfonic acid] sequisodium salt; 2.0 mM magnesium chloride; 0.5 mM ethylene glycol-bis(β-amino-ethyl ether) N,N,N′,N′-tetra-acetic acid, 60% v/v glycerol, pH 6.9, 1 mM GTP; and 2 mg mL^−1 tubulin stock) was added to each of the compounds. […] Polymerization curves were generated in Excel after background correction and the effects of test compounds were compared to controls.
Library members that accelerated the rate of tubulin polymerization were deemed microtubule stabilizers, whereas compounds that decelerated the rate of tubulin polymerization were deemed microtubule de-stabilizers.

[6] = system: A549 cells; assay: Drug combination study with paclitaxel (Chou-Talalay combination index); conditions: for plus paclitaxel, mean CI / plus paclitaxel, median CI: combination index, paclitaxel held at IC10, A549 cells; for interaction with paclitaxel/taxol: drug combination, A549 cells, Chou-Talalay;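 on all read-outs here: combination indexes averaged only over points where fraction affected exceeded 0.2, with each synergy experiment repeated at least three times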
Protocol: (§1) Ten thousand A549 cells per well were plated in triplicate in 96 well black tissue culture treated plates. Cells were incubated for one hour at 37° C. to allow cells to attach.
(§2) All synergy experiment results were replicated at least three times and the overall effects analyzed by averaging all combination indexes generated if the fraction affected was greater than 0.2.

[7] = system: Du145; assay: Cytotoxicity assay (cell titer-glo and calcein AM), Du145
[8] = system: mouse mammary normal epithelial control cell line; assay: Cytotoxicity assay, normal control cell line
[9] = system: MCF7; assay: Cytotoxicity assay (cell titer-glo and calcein AM), MCF7
[10] = system: SK-OV-3; assay: Cytotoxicity assay (cell titer-glo and calcein AM), SK-OV-3
[11] = system: A549 cells; assay: Drug combination study with colchicine (Chou-Talalay combination index); conditions: for plus colchicine, mean CI / plus colchicine, median CI: combination index, colchicine held at IC10, A549 cells; for interaction with colchicine: drug combination, A549 cells, Chou-Talalay
Protocol: as §1, §2

[12] = system: NCI-H460; assay: Cytotoxicity assay (cell titer-glo and calcein AM), NCI-H460
[13] = system: A549; assay: Cytotoxicity assay (cell titer-glo and calcein AM), A549
[14] = system: HCT-116; assay: Cytotoxicity assay (cell titer-glo and calcein AM), HCT-116
[15] = read-out: Cytotoxicity IC50, Hep 3B, CTG, Hep 3B, CTG (cell titer-glo) readout, % error in parentheses
[16] = read-out: Cytotoxicity IC50, Hep 3B, calcein, Hep 3B, calcein AM readout, % error in parentheses
[17] = read-out: Cytotoxicity IC50, SF-268, CTG, SF-268, CTG (cell titer-glo) readout, % error in parentheses
[18] = read-out: Cytotoxicity IC50, SF-268, calcein, SF-268, calcein AM readout, % error in parentheses
[19] = read-out: Cytotoxicity IC50, NCI/ADR RES, CTG, NCI/ADR RES, CTG (cell titer-glo) readout, % error in parentheses
[20] = read-out: Cytotoxicity IC50, NCI/ADR RES, calcein, NCI/ADR RES, calcein AM readout, % error in parentheses
[21] = read-out: Cytotoxicity IC50, Du145, CTG, Du145, CTG (cell titer-glo) readout, % error in parentheses
[22] = read-out: Cytotoxicity IC50, Du145, calcein, Du145, calcein AM readout, % error in parentheses
[23] = read-out: Cytotoxicity IC50, NmuMG, CTG, CTG (cell titer-glo) readout, % error in parentheses
[24] = read-out: Cytotoxicity IC50, NmuMG, calcein, calcein AM readout, % error in parentheses
[25] = read-out: Cytotoxicity IC50, MCF7, CTG, CTG (cell titer-glo) readout, % error in parentheses
[26] = read-out: Cytotoxicity IC50, MCF7, calcein, calcein AM readout, % error in parentheses
[27] = read-out: Cytotoxicity IC50, SK-OV-3, CTG, SK-OV-3, CTG (cell titer-glo) readout, % error in parentheses
[28] = read-out: Cytotoxicity IC50, SK-OV-3, calcein, SK-OV-3, calcein AM readout, % error in parentheses
[29] = read-out: Cytotoxicity IC50, NCI-H460, CTG, NCI-H460, CTG (cell titer-glo) readout, % error in parentheses
[30] = read-out: Cytotoxicity IC50, NCI-H460, calcein, NCI-H460, calcein AM readout, % error in parentheses
[31] = read-out: Cytotoxicity IC50, A549, CTG, A549, CTG (cell titer-glo) readout, % error in parentheses
[32] = read-out: Cytotoxicity IC50, A549, calcein, A549, calcein AM readout, % error in parentheses
[33] = read-out: Cytotoxicity IC50, HCT-116, CTG, HCT-116, CTG (cell titer-glo) readout, % error in parentheses
[34] = read-out: Cytotoxicity IC50, HCT-116, calcein, HCT-116, calcein AM readout, % error in parentheses
[35] = Homo sapiens, Hep3B, read-out: Cytotoxicity IC50, Hep 3B, calcein
[36] = Homo sapiens, SF-268, read-out: Cytotoxicity IC50, SF-268, calcein
[37] = Homo sapiens, NCI/ADR-RES, read-out: Cytotoxicity IC50, NCI/ADR RES, calcein
[38] = Homo sapiens, DU-145, read-out: Cytotoxicity IC50, Du145, CTG
[39] = Homo sapiens, DU-145, read-out: Cytotoxicity IC50, Du145, calcein
[40] = Homo sapiens, SK-OV-3, read-out: Cytotoxicity IC50, SK-OV-3, CTG
[41] = Homo sapiens, SK-OV-3, read-out: Cytotoxicity IC50, SK-OV-3, calcein
[42] = Homo sapiens, HCT-116, read-out: Cytotoxicity IC50, HCT-116, CTG
[43] = Homo sapiens, HCT-116, read-out: Cytotoxicity IC50, HCT-116, calcein

2-deoxy-L-riboside [Col19]
reduction in potency relative to (1) [1]: ~10 fold
IC50 [2, 15]: 376 nM
IC50 [2, 16]: 437 nM
IC50 [3, 17]: 284 nM
IC50 [3, 18]: 575 nM
IC50 [4, 19]: 359 nM
IC50 [4, 20]: 315 nM
tubulin polymeriz. [5]: S
effect on tubulin polymerization / microtubules [5]: stabilizing; also recorded: stabilized the microtubules
synergy (paclitaxel) ([6]; combination index class, combination with paclitaxel, Chou-Talalay method): — (moderate antagonism, Cl 1.2-1.45)
plus paclitaxel, mean CI [6]: 43.20
plus paclitaxel, median CI [6]: 13.40
interaction with paclitaxel/taxol [6]: antagonism
IC50 [7, 21]: 369 nM
IC50 [7, 22]: 262 nM
IC50 [8, 23]: 2910 nM
IC50 [8, 24]: 2850 nM
IC50 [9, 25]: 916 nM
IC50 [9, 26]: 2820 nM
IC50 [10, 27]: 240 nM
IC50 [10, 28]: 538 nM
plus colchicine, mean CI [11]: 0.54
plus colchicine, median CI [11]: 0.50
interaction with colchicine [11]: synergism
IC50 [12, 29]: 415 nM
IC50 [12, 30]: 191 nM
IC50 [13, 31]: 376 nM
IC50 [13, 32]: 636 nM

6-thio-D-mannose dimer [Col58]
IC50 [2, 15]: 8620 nM
IC50 [2, 16]: 5020 nM
IC50 [3, 17]: 8010 nM
IC50 [3, 18]: 9090 nM
IC50 [4, 19]: 3600 nM
IC50 [4, 20]: 1570 nM
IC50 [7, 21]: 2090 nM
IC50 [7, 22]: 2120 nM
IC50 [8, 23]: 6390 nM
IC50 [8, 24]: > 10000 nM
IC50 [9, 25]: 2500 nM
IC50 [9, 26]: 3860 nM
IC50 [10, 27]: 6070 nM
IC50 [10, 28]: 7560 nM
IC50 [12, 29]: > 10000 nM
IC50 [12, 30]: > 10000 nM
IC50 [14, 33]: 1900 nM
IC50 [14, 34]: 2510 nM
IC50 [13, 31]: 3920 nM
IC50 [13, 32]: 4620 nM

CONCC(=O)N[C@H]1CCc2cc(OC)c(OC)c(OC)c2-c2ccc(OC)c(=O)cc21 [Col 8, 19-N-methoxyamino-colchicine]
IC50 ([2]; Homo sapiens, Hep3B, read-out: Cytotoxicity IC50, Hep 3B, CTG): 141 nM
IC50 [2, 35]: 284 nM
IC50 ([3]; Homo sapiens, SF-268, read-out: Cytotoxicity IC50, SF-268, CTG): 116 nM
IC50 [3, 36]: 191 nM
IC50 ([4]; Homo sapiens, NCI/ADR-RES, read-out: Cytotoxicity IC50, NCI/ADR RES, CTG): 79 nM
IC50 [4, 37]: 65 nM
plus paclitaxel, mean CI [6]: 0.90
plus paclitaxel, median CI [6]: 0.57
interaction with paclitaxel/taxol [6]: synergy
IC50 [7, 38]: 64 nM
IC50 [7, 39]: 84 nM
IC50 [10, 40]: 455 nM
IC50 [10, 41]: 316 nM
plus colchicine, mean CI [11]: 2.98
plus colchicine, median CI [11]: 1.47
interaction with colchicine [11]: antagonism
IC50 [14, 42]: 116 nM
IC50 [14, 43]: 98 nM

COc1cc2c(c(OC)c1OC)-c1ccc(OC)c(=O)cc1C(NC(=O)CN(OC)C1CC(O)C(O)C(C)O1)CC2 [Col65, D-Digitoxoside]
IC50 [2, 15]: 1700 nM
IC50 [2, 16]: 1880 nM
IC50 [3, 17]: 800 nM
IC50 [3, 18]: 665 nM
IC50 [4, 19]: 893 nM
IC50 [4, 20]: 694 nM
tubulin polymeriz. [5]: no effect
effect on tubulin polymerization / microtubules [5]: no apparent effect
IC50 [7, 21]: 850 nM
IC50 [7, 22]: 939 nM
IC50 [8, 23]: 7750 nM
IC50 [8, 24]: 3320 nM
IC50 [9, 25]: 946 nM
IC50 [9, 26]: 648 nM
IC50 [10, 27]: 634 nM
IC50 [10, 28]: 1030 nM
IC50 [12, 29]: 862 nM
IC50 [12, 30]: 744 nM
IC50 [14, 33]: 918 nM
IC50 [14, 34]: 897 nM
IC50 [13, 31]: 1490 nM
IC50 [13, 32]: 2300 nM

CC(=O)O[C@H]1C(=O)[C@@]2(C)[C@H]([C@H](OC(=O)c3ccccc3)[C@]3(O)C[C@H](OC(=O)[C@H](O)[C@@H](NC(=O)c4ccccc4)c4ccccc4)C(C)=C1C3(C)C)[C@]1(OC(C)=O)CO[C@@H]1C[C@@H]2O [paclitaxel, reference compound]
IC50 [2, 35]: 166 nM
IC50 ([2]; Homo sapiens, Hep3B, read-out: IC50 (Hep3B)): 166 nM
IC50 [3, 36]: 315 nM
IC50 ([3]; Homo sapiens, SF-268, read-out: IC50 (SF-268)): 315 nM
IC50 [4, 37]: 43 nM
IC50 ([4]; Homo sapiens, read-out: IC50 (ADR-RES)): 43 nM
tubulin polymeriz. [5]: S
effect on tubulin polymerization / microtubules [5]: stabilizing; also recorded: stabilized the microtubules
IC50 [7, 38]: 432 nM
IC50 [7, 39]: 290 nM
IC50 ([7]; Homo sapiens, DU-145, read-out: IC50 (Du145)): 290 nM
IC50 [10, 40]: 42 nM
IC50 [10, 41]: 34 nM
IC50 ([10]; Homo sapiens, SK-OV-3, read-out: IC50 (SK-OV-3)): 34 nM
IC50 ([12]; Homo sapiens, NCI-H460, read-out: IC50 (NCI-H460)): 105 nM
IC50 [14, 42]: 168 nM
IC50 [14, 43]: 275 nM
IC50 ([14]; Homo sapiens, HCT-116, read-out: IC50 (HCT-116)): 275 nM
IC50 ([13]; Homo sapiens, A549, read-out: IC50 (A549)): 75 nM

COc1cc2c(c(OC)c1OC)-c1ccc(OC)c(=O)cc1[C@@H](NC(=O)CN(OC)[C@@H]1O[C@H](CO)[C@@H](O)[C@H](O)[C@H]1F)CC2 [Col34, 2-fluoro-2-deoxy-D-glucoside]
IC50 [2, 15]: 545 nM
IC50 [2, 16]: 1170 nM
IC50 [3, 17]: 281 nM
IC50 [3, 18]: 452 nM
IC50 [4, 19]: > 1000 nM
IC50 [4, 20]: > 1000 nM
effect on tubulin polymerization / microtubules [5]: destabilized microtubules
plus paclitaxel, mean CI [6]: 0.18
plus paclitaxel, median CI [6]: 0.12
interaction with paclitaxel/taxol [6]: strong synergism
IC50 [7, 22]: 328 nM
IC50 [8, 23]: 451 nM
IC50 [8, 24]: 760 nM
IC50 [9, 25]: 242 nM
IC50 [9, 26]: 254 nM
IC50 [10, 27]: 325 nM
IC50 [10, 28]: 800 nM
plus colchicine, mean CI [11]: 31.49
plus colchicine, median CI [11]: 21.50
interaction with colchicine [11]: strong antagonism
IC50 [12, 29]: > 1000 nM
IC50 [12, 30]: > 1000 nM
IC50 [13, 31]: 545 nM
IC50 [13, 32]: 778 nM
